In ChEMBL document CHEMBL4196029, “New MD2 inhibitors derived from curcumin with improved anti-inflammatory activity” (Eur J Med Chem, 2018):
Activity calls are given as the source filed them. The calls are words filed in the database; no cut-off is given here.

Assays:
[1] = tested on: Peritoneal macrophage; assay: Anti-inflammatory activity in C57BL/6 mouse primary peritoneal macrophages assessed as inhibition of LPS-induced IL-6 secretion at 10 uM preincubated for 30 mins followed by LPS addition measured after 24 hrs by ELISA relative to control; format: functional; conditions: for inhibition at 10 µM: C57BL/6, Peritoneal macrophage
[2] = tested on: Peritoneal macrophage; assay: Anti-inflammatory activity in C57BL/6 mouse primary peritoneal macrophages assessed as inhibition of LPS-induced TNFalpha secretion at 10 uM preincubated for 30 mins followed by LPS addition measured after 24 hrs by ELISA relative to control; format: functional; conditions: for inhibition at 10 µM: C57BL/6, Peritoneal macrophage
[3] = tested on: Peritoneal macrophage; assay: Anti-inflammatory activity in C57BL/6 mouse primary peritoneal macrophages assessed as inhibition of LPS-induced TNFalpha secretion at 1 to 10 uM preincubated for 30 mins followed by LPS addition measured after 24 hrs by ELISA; format: functional, cell-based
[4] = Chemical stability in pH 7.4 phosphate buffer at 20 uM measured at 5 mins time intervals for 25 mins by UV absorbance spectroscopic method; format: physicochemical; conditions: pH 7.4, 25 min
[5] = tested on: Peritoneal macrophage; assay: Anti-inflammatory activity in C57BL/6 mouse primary peritoneal macrophages assessed as inhibition of LPS-induced IL-6 secretion at 2.5 uM preincubated for 30 mins followed by LPS addition measured after 24 hrs by ELISA relative to control; format: functional; conditions: C57BL/6, Peritoneal macrophage
[6] = tested on: Peritoneal macrophage; assay: Anti-inflammatory activity in C57BL/6 mouse primary peritoneal macrophages assessed as inhibition of LPS-induced TNFalpha secretion at 5 uM preincubated for 30 mins followed by LPS addition measured after 24 hrs by ELISA relative to control; format: functional; conditions: C57BL/6, Peritoneal macrophage
[7] = tested on: Peritoneal macrophage; assay: Anti-inflammatory activity in C57BL/6 mouse primary peritoneal macrophages assessed as inhibition of LPS-induced IL-6 secretion at 1 to 10 uM preincubated for 30 mins followed by LPS addition measured after 24 hrs by ELISA; format: functional, cell-based

Row | Structure (SMILES) | inhibition [1] | inhibition [2] | inhibition at 10 µM [1] [%] | inhibition at 10 µM [2] [%] | inhibition [3] | Stability [4] | inhibition at 2.5 µM [5] [%] | inhibition at 5 µM [6] [%] | inhibition [7]
1 | COc1ccc(/C=C2\COC/C(=C\c3ccc(OC)cc3)C2=O)cc1 | inactive | inactive |  |  |  |  |  |  | 
2 | CCN1C/C(=C\c2cccc(OC)c2OC)C(=O)/C(=C/c2cccc(OC)c2OC)C1 |  |  | > 80 | > 80 | Active | Stable | > 50 | > 50 | Active
3 | O=C1/C(=C/c2ccccc2Br)COC/C1=C\c1ccccc1Br | inactive | inactive |  |  |  |  |  |  | 
4 | COc1cc(/C=C/C(=O)CC(=O)/C=C/c2ccc(O)c(OC)c2)ccc1O [CURCUMIN] | Active | Active |  |  |  | Unstable |  |  | 
5 | CCN1C/C(=C\c2ccc(F)cc2)C(=O)/C(=C/c2ccc(F)cc2)C1 |  |  | > 80 | > 80 | Active |  | > 50 | > 50 | Active
6 | COc1cc(/C=C2\CSC/C(=C\c3cc(OC)c(OC)c(OC)c3)C2=O)cc(OC)c1OC |  |  | 60 | 25 |  |  |  |  | 
7 | COc1ccc(/C=C2\COC/C(=C\c3ccc(OC)c(OC)c3)C2=O)cc1OC | inactive | inactive |  |  |  |  |  |  | 
8 | O=C1/C(=C/c2cccc(O)c2)COC/C1=C\c1cccc(O)c1 |  |  | > 80 | > 80 | Active | Stable | > 50 | > 50 | Active
9 | COc1ccccc1/C=C1\COC/C(=C\c2ccccc2OC)C1=O | Active | Active |  |  |  |  |  |  | 
10 | CN1C/C(=C\c2ccccc2Br)C(=O)/C(=C/c2ccccc2Br)C1 |  |  | > 80 | > 80 | Active | Unstable | > 50 | > 50 | Active
11 | COc1cccc(/C=C2\COC/C(=C\c3cccc(OC)c3OC)C2=O)c1OC | Active | Active |  |  |  |  |  |  | 
